Data on 4 molecules can be found in paper PMC11558128 (Advanced Science, 2024).

The test system of data set [1] is ICR mice. Briefly: Forced swimming test. The class given is in vivo, mouse. To be noted: 2 mg kg-1 i.p.; vs saline; n = 5, p = 0.8413. As to the method:
Forced Swimming Test: ICR mice (weight 18–20 g, 6–8 weeks, both sex) were subjected to forced swimming training for 8 min per day over a span of 4 days. […] On the 5th day, the remaining mice were randomly assigned to one of two groups: Saline (3 males and 2 females) and the 2 mg kg^−1 mGpTx1‐SA (3 males and 2 females). All groups received intraperitoneal administration and were allowed 20 min for the drug to take effect before behavioral tests commenced. Swimming time was recorded for a duration of 4 min within a 6‐minute timeframe following drug administration.

For data set [2], the system named is other Kv channels (hKv1.1-1.5, rKv2.1, hKv3.1-3.4, mKv4.1, hKv7.2 and hERG). The following applies: n = 3-4; for effect on the current traces of other Kv channels: 1 µM toxin.
Data set [3] concerns ICR mice. Briefly: Surface electrocardiogram (ECG) recording in ICR mice. It is filed as in vivo, mouse. The protocol:
Surface Electrocardiographic (ECG) Recording: ICR mice (weight 18–20 g, 6–8 weeks, both sex) were lightly anesthetized with 3% halothane for Surface electrocardiograms (ECG), which were recorded by placing dry electrodes carefully wrapped around each of the mouse's four limbs. The data of physiological effects of intravenous administration of 0.3 mg kg^−1 mGpTx1 (4 males and 4 females) or 2 mg kg^−1 mGpTx1‐SA (3 males and 2 females) for 5 min were collected by PowerLab 2/28 and LabChart 8 (AD Instruments, Bella Vista, Australia) and analyzed standard ECG parameters by along with its accompanying ECG analysis plug‐in. For each mouse, the data of 8 cardiac cycles before and after administration were averaged for analysis.

Data set [4] deals with native Nav channels of rat primary cardiomyocytes. To be noted: 5 µM; n = 5.
The test system of data set [5] is acutely isolated rat cardiomyocytes. The following applies: 5 µM; for effect on action potential duration (APD): n = 5-6.
The test system of the next data set is C57BL/6 mice. Briefly: Open field test. The class given is in vivo, mouse. To be noted: 2 mg kg-1 i.p.; 2 min; vs saline; n = 4, p = 0.2000. As to the method:
Open Field Test: The C57BL/6 mice (weight 18–20 g, 6–8 weeks, both sex) were randomly assigned to one of two groups: Saline (2 males and 2 females) and 2 mg kg^−1 mGpTx1‐SA (2 males and 2 females). All mice received intraperitoneal administration of the respective substances and were allowed 20 min for the drugs to take effect. Following drug administration, the mice were individually placed in square transparent chambers (50 × 50 cm). They were allowed to explore freely under normal light. The movements and trajectories of the mice were recorded using video and computer systems over a 2‐minute period for subsequent analysis.

The subject of data set [6] is ICR mice. Briefly: Small intestinal propulsion test. To be noted: 2 mg kg-1 i.p.; vs saline; n = 4, p = 0.3429. The class given is in vivo, mouse. The protocol: Small Intestinal Propulsion Test: ICR mice (weight 18–20 g, 6–8 weeks, both sex) were subjected to a 24‐hour fasting period to ensure gastrointestinal emptying. Subsequently, the mice were randomly assigned to one of two groups: Saline (2 males and 2 females) and 2 mg kg^−1 mGpTx1‐SA (2 males and 2 females). All groups received intraperitoneal administration of their respective substances and were allowed 20 minutes for the drugs to take effect. Following drug administration, each mouse received a pre‐prepared nutritive semi‐solid paste (10 g of sodium carboxymethylcellulose, 16 g of milk powder, 8 g of sucrose, 8 g of starch, and 5 g of activated charcoal, stirred well in 250 mL of ddH2O) via gavage (0.5 mL per 20 g). After 20 min, the mice were euthanized, and their small intestines were carefully removed. The distance from the pylorus to the ileum was measured along the full length of the small intestine. Additionally, the distance from the pylorus to the front of the black semi‐solid paste was measured. Small intestinal propulsion rate (%) = length of carbon paste propulsion (cm) × 100% / total length of small intestine (cm).

The target in a further data set is T1, rKv4.2 E283K (Rattus norvegicus, UniProt Q63881, E283K).
T1 construct: expressed in transfected cells; host or cells: HEK293T
T1 sequence (Q63881 1-630 E283K): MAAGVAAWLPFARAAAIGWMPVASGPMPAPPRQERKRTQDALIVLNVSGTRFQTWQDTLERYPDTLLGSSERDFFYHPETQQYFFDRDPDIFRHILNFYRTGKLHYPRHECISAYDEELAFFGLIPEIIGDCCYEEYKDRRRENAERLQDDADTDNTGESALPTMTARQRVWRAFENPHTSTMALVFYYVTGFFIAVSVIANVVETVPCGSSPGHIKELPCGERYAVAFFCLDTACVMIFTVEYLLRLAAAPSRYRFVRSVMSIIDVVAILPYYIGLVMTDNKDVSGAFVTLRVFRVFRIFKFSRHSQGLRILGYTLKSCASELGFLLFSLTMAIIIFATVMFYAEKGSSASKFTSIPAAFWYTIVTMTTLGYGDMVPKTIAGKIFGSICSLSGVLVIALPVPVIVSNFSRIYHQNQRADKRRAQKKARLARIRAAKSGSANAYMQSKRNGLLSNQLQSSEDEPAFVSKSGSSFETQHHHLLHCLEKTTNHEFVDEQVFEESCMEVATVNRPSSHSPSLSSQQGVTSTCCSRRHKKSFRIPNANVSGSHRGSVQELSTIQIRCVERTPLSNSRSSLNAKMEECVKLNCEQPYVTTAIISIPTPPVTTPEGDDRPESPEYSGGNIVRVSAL
Briefly: cell-based. To be noted: mean ± SEM.

Structures are written as SMILES. Positions of bridges follow the written chain, without caps; N, C: chain ends. Residues, ends and D or L forms follow the SMILES beside them.

Take `CC[C@H](C)[C@@H]1NC(=O)[C@@H]2CSSC[C@@H]3NC(=O)[C@H](C(C)C)NC(=O)[C@H](CC(C)C)NC(=O)[C@H](CC(N)=O)NC(=O)[C@@H]4CCCN4C(=O)[C@H](CCCNC(=N)N)NC(=O)[C@H](CSSC[C@H](NC(=O)[C@@H](N)CC(=O)O)C(=O)N[C@@H](CC(C)C)C(=O)NCC(=O)N[C@@H](C)C(=O)N[C@@H](Cc4ccccc4)C(=O)N[C@@H](CCCNC(=N)N)C(=O)N[C@@H](CCCCN)C(=O)N2)NC(=O)[C@H](CSSC[C@@H](C(=O)N[C@@H](CCCCN)C(=O)N[C@@H](Cc2ccc(O)cc2)C(=O)N[C@H](C(=O)N[C@@H](Cc2ccccc2)C(N)=O)C(C)C)NC(=O)[C@H](Cc2c[nH]c4ccccc24)NC(=O)[C@H](CCCNC(=N)N)NC(=O)[C@H](Cc2c[nH]cn2)NC(=O)[C@H](C)NC(=O)[C@H](CO)NC(=O)[C@H](CO)NC3=O)NC(=O)[C@H](CCCCN)NC(=O)[C@H](CC(=O)O)NC(=O)[C@H](CC(N)=O)NC(=O)[C@H](CC(=O)O)NC(=O)[C@@H]2CCCN2C1=O` [mGpTx1-SA] (H-DCLGAFRKCIPDNDKCCRPNLVCSSAHRWCKYVF-NH2; disulfide 2-17, 9-23, 16-30): the “time spent on swimming” value with ICR mice [1] is on record as “did not affect”. Moreover, the “inhibition on other Kv channel subtypes” value in data set [2] (10 µM) is “low inhibition”. In addition, the RR interval with ICR mice [3] (2 mg kg-1, tail vein, control 0.13 ± 0.01 s, n = 5, p = 0.3229) came out at 0.13 ± 0.01 s. Further, the heart rate in the data set with ICR mice [3] (2 mg kg-1, tail vein, control 478.2 ± 24.3, n = 5, p = 0.8856) was 475.3 ± 24.7. In addition, the “effect on the ECGs” value with ICR mice [3] (2 mg kg-1, tail vein, n = 5) was “no effect”. In addition, the “inhibition of Nav currents in the primary cardiomyocytes” value in data set [4] is listed as “did not inhibit”. In addition, in data set [5], the “effect on AP amplitude” value is “no significant changes”, the “effect on resting membrane potential (RMP)” value is “no significant changes” and the “effect on action potential duration (APD)” value is “no effect”. In addition, the “exploratory and locomotor behavior, open-field test” value in the data set on C57BL/6 mice is recorded as “did not influence significantly”. For the same molecule, the small intestinal propulsion result with ICR mice [6] is given as “no effect”.
For `CC[C@H](C)[C@@H]1NC(=O)[C@@H]2CSSC[C@@H]3NC(=O)[C@H](C(C)C)NC(=O)[C@H](CC(C)C)NC(=O)[C@H](CC(N)=O)NC(=O)[C@@H]4CCCN4C(=O)[C@H](CCCNC(=N)N)NC(=O)[C@H](CSSC[C@H](NC(=O)[C@@H](N)CC(=O)O)C(=O)N[C@@H](CC(C)C)C(=O)NCC(=O)N[C@@H](C)C(=O)N[C@@H](Cc4ccccc4)C(=O)N[C@@H](CCCNC(=N)N)C(=O)N[C@@H](CCCCN)C(=O)N2)NC(=O)[C@H](CSSC[C@@H](C(=O)N[C@@H](CCCCN)C(=O)N[C@@H](Cc2ccc(O)cc2)C(=O)N[C@H](C(=O)N[C@@H](Cc2ccccc2)C(N)=O)C(C)C)NC(=O)[C@H](Cc2c[nH]c4ccccc24)NC(=O)[C@H](CCCNC(=N)N)NC(=O)[C@H](Cc2cnc[nH]2)NC(=O)[C@H](CC(C)C)NC(=O)[C@H](CCCNC(=N)N)NC(=O)[C@H](CO)NC3=O)NC(=O)[C@H](CCCCN)NC(=O)[C@H](CC(=O)O)NC(=O)[C@H](CC(N)=O)NC(=O)[C@H](CC(=O)O)NC(=O)[C@@H]2CCCN2C1=O` [mGpTx1] (H-DCLGAFRKCIPDNDKCCRPNLVCSRLHRWCKYVF-NH2; disulfide 2-17, 9-23, 16-30), the “effect on the current traces of other Kv channels” value in data set [2] is “no obvious or only minimal effect”. Moreover, the QTc interval with ICR mice [3] (0.3 mg kg-1, tail vein, control 0.07 ± 0.01 s, n = 8, p < 0.001) turned out to be 0.12 ± 0.01 s. The molecule also registered an RR interval in the data set on ICR mice [3] (0.3 mg kg-1, tail vein, control 0.12 ± 0.01 s, n = 8, p = 0.0088) of 0.14 ± 0.01 s. This molecule also gave a T-wave amplitude in the data set on ICR mice [3] (0.3 mg kg-1, tail vein, control 0.20 ± 0.03 mV, n = 8, p = 0.0138) of 0.09 ± 0.02 mV. In the data set on ICR mice [3] (0.3 mg kg-1, tail vein, control 508.4 ± 24.5, n = 8, p = 0.0045), the heart rate was 451.6 ± 27.1. Besides, the “effect on the ECGs” value in the data set on ICR mice [3] (0.3 mg kg-1, tail vein, n = 8) was “notably altered the shape of the ECGs”. In addition, on rKv4.2 E283K, 646 ± 135 nM corresponded to half-maximal inhibition (IC50). Besides, in data set [5], the “effect on AP amplitude” value is given as “no significant changes”, the “effect on resting membrane potential (RMP)” value is reported as “no significant changes” and the “effect on action potential duration (APD)” value is recorded as “significantly prolonged”. The “APD at 90% repolarization (APD 90)” value in data set [5] (before treatment 51.7 ± 14.6 ms, n = 5, p = 0.0289) was 137.1 ± 36.3 ms.
Regarding `CC[C@H](C)[C@H](NC(=O)[C@H](CCC(=O)O)NC(=O)[C@H](Cc1ccc(O)cc1)NC(=O)[C@H](CCCCN)NC(=O)[C@@H]1CSSC[C@@H]2NC(=O)[C@H](CCC(N)=O)NC(=O)[C@H](CC(=O)O)NC(=O)[C@H](CC(N)=O)NC(=O)[C@H](CO)NC(=O)[C@@H]3CCCN3C(=O)[C@H](CC(N)=O)NC(=O)[C@@H]3CSSC[C@H](NC(=O)[C@H](C(C)C)NC(=O)[C@H](CC(C)C)NC(=O)[C@H](CC(N)=O)NC(=O)[C@H](CO)NC(=O)[C@H](CO)NC(=O)[C@H](CCCCN)NC(=O)[C@H](CSSC[C@H](NC(=O)[C@@H](N)CCC(=O)O)C(=O)N[C@@H](CC(C)C)C(=O)NCC(=O)N[C@@H](Cc4ccccc4)C(=O)NCC(=O)N[C@@H](CCCCN)C(=O)NCC(=O)N3)NC2=O)C(=O)N[C@@H](CO)C(=O)N[C@@H](CCCNC(=N)N)C(=O)N[C@@H](CCCCN)C(=O)N[C@@H](Cc2c[nH]cn2)C(=O)N[C@@H](CCCNC(=N)N)C(=O)N[C@@H](Cc2c[nH]c3ccccc23)C(=O)N1)C(N)=O` [HNTX-IV], half-maximal inhibition at rKv4.2 E283K (IC50) required 5630 ± 1280 nM.
Turning to `CC(C)C[C@@H]1NC(=O)[C@H](Cc2c[nH]c3ccccc23)NC(=O)[C@H](Cc2ccc(O)cc2)NC(=O)[C@H](CCCNC(=N)N)NC(=O)[C@@H](NC(=O)[C@@H](N)CCC(=O)O)CSSC[C@@H]2NC(=O)[C@@H]3CSSC[C@@H](C(=O)N[C@H](C(=O)N[C@@H](Cc4c[nH]c5ccccc45)C(=O)N[C@@H](CC(=O)O)C(=O)N[C@@H](Cc4c[nH]c5ccccc45)C(=O)N[C@H](C(=O)N[C@@H](Cc4ccccc4)C(N)=O)[C@@H](C)O)C(C)C)NC(=O)[C@H](Cc4c[nH]c5ccccc45)NC(=O)CNC(=O)[C@H](Cc4c[nH]cn4)NC(=O)[C@H](CCCCN)NC(=O)[C@@H]4CCCN4C(=O)[C@H](CO)NC(=O)[C@H](CSSC[C@H](NC(=O)[C@H]([C@@H](C)O)NC(=O)CNC1=O)C(=O)N[C@@H](CO)C(=O)N[C@@H](CCCCN)C(=O)N[C@@H]([C@@H](C)O)C(=O)NCC(=O)N[C@@H](CC(=O)O)C(=O)N3)NC(=O)[C@H](CO)NC(=O)[C@H](CC(C)C)NC(=O)[C@H](Cc1c[nH]cn1)NC(=O)[C@H](CO)NC2=O` [HNTX-VIIa] (H-ECRYWLGTCSKTGDCCSHLSCSPKHGWCVWDWTF-NH2; disulfide 2-16, 9-21, 15-28), the “effect on the current traces of other Kv channels” value in data set [2] is listed as “no obvious or only minimal effect”. Also, the 50% inhibitory concentration (IC50) (usually the point on the concentration scale where inhibition reaches its midpoint) against rKv4.2 E283K is 62 ± 13 nM.
